Data reported in patent publication US10800778B2 (Entasis Therapeutics Limited, priority 2016, dated 2020).
pIC50: −log10 of the molar value. Where a name gives a salt, the structure may show the parent alone.

Tests used:
[1] = tested on: C. freundii AmpC, TEM-1, CMY65; test: MIC, CLSI broth microdilution, beta-lactam with or without BLI; format: cell-based; conditions: for MIC of beta-lactam alone / MIC: no BLI; for MIC: Citrobacter freundii, read-out: MIC of beta-lactam alone
Experimental: (§1) The minimal inhibitory concentration (MIC) values against each organism and drug combination were determined using the Clinical and Laboratory Standards Institute guidelines (CLSI) broth microdilution methodology (CLSI M07-A10). The recommended quality control (QC) bacterial strains E. coli ATCC 25922, E. coli ATCC 35218 and Klebsiella pneumoniae ATCC 700603 were incorporated into each test according to the CLSI guidelines to assure that there was no variation between test dates (CLSI M100-S25). The MICs of these QC strains were within QC range on all test occasions. Drug containing plates were made using the master plate method. A cefpodoxime solution was prepared to 20× concentration and 2-fold serial dilutions were made in cation adjusted Mueller-Hinton Broth. Equal volumes of 20× examplar compounds at a fixed concentration were added to the master plate. 10 uL was stamped into daughter plates using a Tecan EVO robot. Organism suspensions were adjusted to a 0.5 McFarland standard and further diluted to yield a final inoculum between 3×10^5 and 7×10^5 colony-forming units (CFU)/mL. Bacterial inocula were made in sterile, cation adjusted Mueller-Hinton Broth (Beckton Dickinson). An inoculum volume of 1.1× concentration of 90 uL was added to wells (using a Tecan EVO robot). All inoculated microdilution plates were incubated in ambient air at 35° C. for 18-24 hours.
(§2) Following the procedure from Example 103, MICs were determined for several beta-lactams in presence of a fixed concentration (4 μg/mL) of exemplar compounds (Table 3) against 3 Enterobacteriaceae strains.

[2] = tested on: E. coli WT (ATCC 25922); test: as above; format: cell-based; conditions: for MIC of beta-lactam alone: no BLI; for MIC: Escherichia coli, ATCC25922, no BLI, read-out: MIC of beta-lactam alone
Experimental: as §1, §2

[3] = tested on: Klebsiella pneumoniae SHV-18, OXA-2, OKP-6 (ATCC 700603); test: as above; format: cell-based; conditions: for MIC of beta-lactam alone / MIC: no BLI; for MIC of beta-lactam alone / MIC / MIC of cefpodoxime in presence of BLI: K. pneumoniae SHV-18, OXA-2, OKP-6 (ATCC 700603); for MIC: Klebsiella pneumoniae, ATCC700603, read-out: MIC of beta-lactam alone; for MIC of cefpodoxime in presence of BLI: BLI at fixed 4 μg/mL
Experimental: as §1, §2

[4] = target: TEM-1 (Class A beta-lactamase) (Escherichia coli, UniProt P62593); test: Inhibition of beta-lactamase enzymes (nitrocefin hydrolysis), TEM-1; format: biochemical; conditions: read-out: Class A TEM-1 60 min IC50, nitrocefin 100 μM
Experimental: (§3) A buffer consisting of 0.1 M sodium phosphate (pH 7.0), 10 mM NaHCO3, and 0.005% Triton X-100 was used for all enzymes. The chromogenic substrate nitrocefin (SynGene, Bangalore, India) was used at 100 μM. Enzyme activity was monitored by the 490 nm absorbance increase upon nitrocefin hydrolysis. Assays were performed in clear polystyrene 384-well plates (Greiner Bio-One, Monroe, N.C.). Absorbance was measured for 1 hour at 30-s intervals using a Spectramax absorbance plate reader (Molecular Devices, Sunnyvale, Calif.). Measurement of beta-lactamase inhibition by INHIBITOR employed serial 3-fold dilutions of the inhibitor in assay buffer, ranging from 100 μM to 62.7 pM. A background absorbance progress curve for a control lacking enzyme and inhibitor was subtracted from each progress curve.
(§4) The complete set of progress curves for one enzyme with all inhibitor concentrations was subjected to numerical integration with the program Kintek Global Kinetic Explorer (Kintek Corp, Snowshoe Pa.) to obtain a best-fit to the mechanism shown in Scheme 10.
(§5) where E, S, ES, P, I, and EI are the concentrations of the enzyme, nitrocefin, the enzyme-nitrocefin complex, the nitrocefin hydrolysis product, INHIBITOR, and the enzyme-INHIBITOR complex respectively. […] The values of k+2, k+3, and k−3 were fit. Concentration series offsets of the absorbance measurements were used to correct for slight absorbance baseline differences between wells. The parameter k+3 is equivalent to the second order rate constant kinact/Ki. In some cases, the inhibition was in rapid equilibrium on the experimental time scale, so that only the ratio k−3/k+3=Ki could be determined. Although k−3 represents reversal of inhibitor binding in Scheme 10, hydrolysis of the enzyme-inhibitor complex could not be excluded based on kinetic measurements.
(§6) Best-fit absorbance values from the above procedure at each time point for each compound concentration were exported to Excel.
(§7) where A is the best-fit absorbance without inhibitor and Ainhib is the best-fit absorbance in the presence of the inhibitor.
(§8) where [I] is the inhibitor concentration and n is the Hill coefficient. The Excel add-in XLfit (ID Business Solutions) was used for nonlinear regression.

[5] = target: OXA-48 (Class D beta-lactamase) (Klebsiella pneumoniae, UniProt Q6XEC0); test: Inhibition of beta-lactamase enzymes (nitrocefin hydrolysis), OXA-48; format: biochemical; conditions: read-out: Class D OXA-48 60 min IC50, nitrocefin 100 μM
Experimental: as §3, §4, §5, §6, §7, §8

[6] = tested on: E. coli ARC2687 (AmpC, CTX-M-14); test: Mouse neutropenic thigh infection model, oral efficacy of cefpodoxime proxetil with Example 35; format: in vivo
Experimental: The oral in vivo efficacy of Example 35 was evaluated in combination with cefpodoxime proxetil in a mouse neutropenic thigh infection model versus a relevant clinical isolate. […] CD-1 mice (Charles River, Wilmington US) were housed in shoebox type cages with contact bedding and acclimated to the facility for a minimum of 2 days prior to use. The animal room was maintained at 70° F., with 50+/−10% relative humidity and a 12-hour light/dark cycle. The study was conducted using an IACUC-approved protocol in accordance with Title 9 of the Code of Federal Regulations. Animals were rendered neutropenic with two intraperitoneal doses of cyclophosphamide (150 mg/kg—4 days and 100 mg/kg—1 day prior to infection (Gerber et al. (1983) J Infect Dis 147(5); 910-917)). Animals were infected via an intramuscular challenge of ˜1×10^6 CFU administered within 100 μL of 0.9% saline. The inoculum was prepared from a 25 mL overnight culture of E. coli ARC 2687 in tryptic soy broth media. Following an OD600 determination, the inoculum was diluted in 0.9% saline to a concentration of […] prior to inoculation into the left and right thigh. Oral therapy with cefpodoxime proxetil alone and in combination with Example 35 was initiated 2 hours post bacterial challenge. Doses were suspended in 0.5% HPMC/0.1% Tween 80 and administered by oral gavage at a dose volume of 10 mL/kg. A terminal endpoint was obtained at 24 hr to determine bacterial counts in thigh tissue (CFU/gm). Animals were ethically euthanized, thighs were asceptically removed, weighed and homogenized in 1 mL of saline. Bacterial burden enumeration of tissue homogenate was performed by serial dilution on tryptic soy agar plates which were incubated overnight at 37° C. prior to colony (CFU) counting. The lower limit of detection was ˜2.6 log10 CFU/gm of tissue.

[7] = Stability in pH 7.4 buffer (no enzyme); format: physicochemical; conditions: HEPES buffer without enzyme, read-out: T1/2 pH 7.4 Buffer
Experimental: (§9) The human intestinal S9 with the absence of PMSF, human liver S9, rat intestinal S9, and rat liver S9 preparations were obtained from Xenotech (Lenexa, Kans.). The 500-μL incubation solution contained 0.8 mg/mL of enzyme (or no enzyme for buffer stability), 10 μM of test compounds in 100 mM of HEPES buffer, pH 7.4. The hydrolysis reactions were conducted in a 1-mL glass insert (Analytical Sales, Pompton Plains, N.J.) in a shake water bath at 37° C. At 0, 2, 5, 10, 15, 30 and 60 min, the reaction was terminated by pipetting 50 μL incubate to a 96 DeepWell plate (Thermo Fisher Scientific, Rochester, N.Y.) containing 100 μL of acetonitrile with 250 ng/mL of Carbutamide (Sigma-Aldrich, St. Louis, Miss.) as the internal standard. The crashed solutions were then vortexed well followed by centrifuge at 4000 rpm for 15 min at 4° C. The extract was transferred to a new 96 DeepWell plate for LC-MS/MS analysis.
(§10) LC-MS/MS analysis was done using an AB Sciex QTrap 6500 mass spectrometer under positive ionization mode, coupled to a Schimadzu Nexera LC system.
(§11) A Waters Atlantis T3 (3 μm, 3.0×50 mm) column was used for separation. The mobile phase consisted 0.1% formic acid in water (A) and 0.1% formic acid in acetonitrile (B) with a flow rate set at 1.2 mL/min. For the prodrug analysis, the Multiple Reaction Monitoring (MRM) specific for each compound was set up so that both prodrug and its hydrolyzed active can be monitored simultaneously.
(§12) Half-lives listed are based on disappearance of starting ester.

[8] = Stability/conversion of esters in rat intestinal S9; format: in vitro ADME; conditions: intestinal S9, pH 7.4, read-out: T1/2 Rat Intestinal S9
Experimental: as §9, §10, §11, §12

[9] = Stability/conversion of esters in rat liver S9; format: in vitro ADME; conditions: liver S9, pH 7.4, read-out: T1/2 Rat Liver S9
Experimental: as §9, §10, §11, §12

[10] = Stability/conversion of esters in human intestinal S9; format: in vitro ADME; conditions: intestinal S9 (without PMSF), pH 7.4, read-out: T1/2 Human Intestinal S9
Experimental: as §9, §10, §11, §12

[11] = Stability/conversion of esters in human liver S9; format: in vitro ADME; conditions: liver S9, pH 7.4, read-out: T1/2 Human Liver S9
Experimental: as §9, §10, §11, §12

[12] = BLI at fixed 4 μg/ml, K. pneumoniae ATCC 700603

Sequence of TEM-1 (Class A beta-lactamase) (P62593 whole entry, looked up, species assumed): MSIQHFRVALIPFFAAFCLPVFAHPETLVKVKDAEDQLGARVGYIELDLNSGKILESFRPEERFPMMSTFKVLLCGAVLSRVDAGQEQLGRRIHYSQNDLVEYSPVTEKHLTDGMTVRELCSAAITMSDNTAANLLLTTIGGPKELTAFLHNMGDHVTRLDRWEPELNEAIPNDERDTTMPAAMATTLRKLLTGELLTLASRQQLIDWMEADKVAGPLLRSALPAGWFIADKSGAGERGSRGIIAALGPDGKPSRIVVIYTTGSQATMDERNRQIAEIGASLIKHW
Sequence of OXA-48 (Class D beta-lactamase) (Q6XEC0 whole entry, looked up, species assumed): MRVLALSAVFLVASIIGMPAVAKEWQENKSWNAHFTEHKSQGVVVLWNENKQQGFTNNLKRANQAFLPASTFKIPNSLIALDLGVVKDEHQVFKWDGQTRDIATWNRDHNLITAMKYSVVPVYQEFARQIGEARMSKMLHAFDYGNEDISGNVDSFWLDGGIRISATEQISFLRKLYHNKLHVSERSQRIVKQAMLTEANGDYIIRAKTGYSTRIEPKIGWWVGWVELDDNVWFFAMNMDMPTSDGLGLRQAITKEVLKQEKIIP

## N[C@@H](C(=O)N[C@@H]1C(=O)N2C(C(=O)O)=C(Cl)CC[C@H]12)c1ccccc1 [Loracarbef, loracarbef, reference compound]
[1]
  MIC of beta-lactam alone: >64 µg/mL
[2]
  MIC of beta-lactam alone: 2 µg/mL
[3]
  MIC of beta-lactam alone: 32 µg/mL

## C[C@@H](O)[C@H]1C(=O)N2C(C(=O)O)=C(SC3CN(C4=NCCS4)C3)[C@H](C)[C@H]12 [Tebipenem, tebipenem, reference compound]
[1]
  MIC: 0.125 µg/mL
[2]
  MIC: ≤ 0.06 µg/mL
[3]
  MIC: 0.125 µg/mL

## CO/N=C(\C(=O)N[C@@H]1C(=O)N2C(C(=O)O)=C(COC(N)=O)CS[C@H]12)c1ccco1 [Cefuroxime, cefuroxime, reference compound]
[1]
  MIC of beta-lactam alone: >64 µg/mL
[2]
  MIC of beta-lactam alone: 4 µg/mL
[3]
  MIC of beta-lactam alone: 32 µg/mL

## CC1=C[C@@H]2CN(C(=O)N2O[C@@H](F)C(=O)O)[C@@H]1C(=O)NCCNS(N)(=O)=O [Example 75, (2S)-2-fluoro-2-[[(2S,5R)-3-methyl-7-oxo-2-[2-(sulfamoylamino)ethyl-carbamoyl]-1,6-diazabicyclo[3.2.1]oct-3-en-6-yl]oxy]acetic acid lithium salt]
[4]
  pIC50: 7.08
[5]
  pIC50: 6.38
[3]
  MIC of cefpodoxime in presence of BLI: 0.125 µg/mL

## C[C@@H](O)[C@H]1C(=O)N2C(C(=O)O)=C([C@H]3CCCO3)S[C@H]12 [Faropenem, faropenem, reference compound]
[1]
  MIC: 8 µg/mL
[2]
  MIC: 0.5 µg/mL
[3]
  MIC: 8 µg/mL

## CC1=C[C@@H](C(N)=O)N2C[C@@H]1N(OCC(=O)O)C2=O [Example 93, 2-(((2S,5R)-2-carbamoyl-4-methyl-7-oxo-1,6-diazabicyclo[3.2.1]oct-3-en-6-yl)oxy)acetic acid lithium salt]
[4]
  pIC50: 6.82
[5]
  pIC50: 7.28
[1]; BLI at fixed 4 μg/ml
  MIC of cefixime in presence of BLI: ≤0.06 µg/mL
  MIC of faropenem in presence of BLI: ≤0.06 µg/mL
  MIC of tebipenem in presence of BLI: ≤0.06 µg/mL
[2]; BLI at fixed 4 μg/ml
  MIC of cefixime in presence of BLI: ≤0.06 µg/mL
  MIC of faropenem in presence of BLI: ≤0.06 µg/mL
  MIC of tebipenem in presence of BLI: ≤0.06 µg/mL
[3]; lithium salt
  MIC of cefpodoxime in presence of BLI: 0.125 µg/mL
[3]; [12]
  MIC of cefixime in presence of BLI: 0.125 µg/mL
  MIC of faropenem in presence of BLI: 1 µg/mL
  MIC of tebipenem in presence of BLI: ≤0.06 µg/mL

## CC1(C)[C@H](NC(=O)/C(=N\OCC(=O)O)c2csc(N)n2)C(=O)N1OS(=O)(=O)O [Tigemonam, tigemonam, reference compound]
[1]
  MIC of beta-lactam alone: 4 µg/mL
[2]
  MIC of beta-lactam alone: 1 µg/mL
[3]
  MIC of beta-lactam alone: 32 µg/mL

## C=CC1=C(C(=O)O)N2C(=O)[C@@H](NC(=O)/C(=N\OCC(=O)O)c3csc(N)n3)[C@H]2SC1 [Cefixime, cefixime, reference compound]
[1]
  MIC of beta-lactam alone: >64 µg/mL
[2]
  MIC of beta-lactam alone: 0.5 µg/mL
[3]
  MIC of beta-lactam alone: 8 µg/mL

## COCC1=C(C(=O)OC(C)OC(=O)OC(C)C)N2C(=O)[C@@H](NC(=O)/C(=N\OC)c3csc(N)n3)[C@H]2SC1 (stereo partly drawn) [Cefpodoxime proxetil, cefpodoxime proxetil, reference compound]
[6]; cefpodoxime proxetil alone 50 mg/kg PO/q6h, mouse neutropenic thigh, E. coli ARC2687
  log10CFU/gm thigh: 10.24 log10CFU/gm thigh
[6]; cefpodoxime proxetil alone 50 mg/kg PO/q6h, relative to 26 hr growth control
  CFU Change from 26 hr: −0.62 log10 CFU/gm
[6]; cefpodoxime proxetil alone 50 mg/kg PO/q6h, relative to initiation of therapy
  CFU Change from 2 hr: +3.97 log10 CFU/gm
[6]; cefpodoxime proxetil alone at 50 mg/kg q6h, oral, neutropenic CD-1 mice
  growth of bacterial burden in thighs after 24 hours of therapy: greater than 3 log10 CFU/gm

## CCOC(=O)CON1C(=O)N2C[C@H]1C=C(C)[C@H]2C(N)=O [Example 9, ethyl {[(2S,5R)-2-carbamoyl-3-methyl-7-oxo-1,6-diazabicyclo[3.2.1]oct-3-en-6-yl]oxy}acetate]
[7]
  half-life at 10 μM: 18.3 min
[8]
  half-life at 10 μM: 27.3 min
[9]
  half-life at 10 μM: 1.4 min
[10]
  half-life at 10 μM: 17.8 min
[11]
  half-life at 10 μM: 2.9 min
